Laboratory results reported in patent US20030203899A1, “Drugs for incontinence” (priority 2000, published 2003).
Where a name gives a salt, the structure may show the parent alone.

System: strips of urinary guinea-pig bladder contracted with carbacol
Test: Inhibition of bladder contraction: relaxation of guinea-pig urinary bladder strips contracted with carbacol, in vitro
Type: cell-based
Settings: strips contracted with carbacol 10^−6 M, placebo = 100
Excerpt: The activity in the urinary incontinence of the compounds according to the present invention has been evaluated in an experimental model of inhibition of the bladder contraction.
The degree of the relaxation induced in the urinary bladder is a measure of the inhibitory action of the urinary incontinence of the drugs described in the present application.
Guinea-pigs of male sex having an average weight equal to 300-500 g were sacrificed and bled. The urinary bladder was removed and prepared for determining the myorelaxing activity in vitro, according to the method described by L. Nilvenbrant, Eur. J. Pharmacol. 327,195-207, 1997.
The obtained tissue strips were contracted with carbacol 10^−6 M in phisiological solution and the relaxation was determined in the presence of the compounds indicated in Table 1 at the concentrations mentioned therein. The 2-(acetyloxy) benzoic acid 6-(nitroxymethyl)-2-methylpyridyl ester hydrochloride was prepared according to Example 1 of patent application PCT/EP 00/01454 (NCX 4050).

Molecule	Bladder strip contraction, % of placebo (compound 3 × 10 − 5 M) [%]	Bladder strip contraction, % of placebo (compound 10^−6 M) [%]
CC(=O)Oc1ccccc1C(=O)Oc1ccc(CO[N+](=O)[O-])nc1C.Cl [NCX 4050, 2-(acetyloxy) benzoic acid 6-(nitroxymethyl)-2-methylpyridyl ester hydrochloride]	71	
CCN(CC)CC#CCOC(=O)C(O)(c1ccccc1)C1CCCCC1 (centres unmarked) [Oxybutynin Hydrochloride (Comp), oxybutynin hydrochloride, reference compound]		30
CCCc1nn(C)c2c(=O)[nH]c(-c3cc(S(=O)(=O)N4CCN(C)CC4)ccc3OCC)nc12 [Sildenafil Citrate, sildenafil citrate, reference compound]	52	
oxybutynin nitrate salt		0
sildenafil nitrate salt	31	
